Here are results for twelve compounds from US11306092B2, “Amino indole compounds useful as TLR inhibitors” (BRISTOL-MYERS SQUIBB COMPANY, priority 2017, dated 2022).

Holding throughout (type): cell-based
For one assay, the target named is T1, human TLR7 (Homo sapiens, UniProt Q9NYK1).
T1 construct: host or cells: HEK-Blue cells
T1 sequence (Q9NYK1 27-1049): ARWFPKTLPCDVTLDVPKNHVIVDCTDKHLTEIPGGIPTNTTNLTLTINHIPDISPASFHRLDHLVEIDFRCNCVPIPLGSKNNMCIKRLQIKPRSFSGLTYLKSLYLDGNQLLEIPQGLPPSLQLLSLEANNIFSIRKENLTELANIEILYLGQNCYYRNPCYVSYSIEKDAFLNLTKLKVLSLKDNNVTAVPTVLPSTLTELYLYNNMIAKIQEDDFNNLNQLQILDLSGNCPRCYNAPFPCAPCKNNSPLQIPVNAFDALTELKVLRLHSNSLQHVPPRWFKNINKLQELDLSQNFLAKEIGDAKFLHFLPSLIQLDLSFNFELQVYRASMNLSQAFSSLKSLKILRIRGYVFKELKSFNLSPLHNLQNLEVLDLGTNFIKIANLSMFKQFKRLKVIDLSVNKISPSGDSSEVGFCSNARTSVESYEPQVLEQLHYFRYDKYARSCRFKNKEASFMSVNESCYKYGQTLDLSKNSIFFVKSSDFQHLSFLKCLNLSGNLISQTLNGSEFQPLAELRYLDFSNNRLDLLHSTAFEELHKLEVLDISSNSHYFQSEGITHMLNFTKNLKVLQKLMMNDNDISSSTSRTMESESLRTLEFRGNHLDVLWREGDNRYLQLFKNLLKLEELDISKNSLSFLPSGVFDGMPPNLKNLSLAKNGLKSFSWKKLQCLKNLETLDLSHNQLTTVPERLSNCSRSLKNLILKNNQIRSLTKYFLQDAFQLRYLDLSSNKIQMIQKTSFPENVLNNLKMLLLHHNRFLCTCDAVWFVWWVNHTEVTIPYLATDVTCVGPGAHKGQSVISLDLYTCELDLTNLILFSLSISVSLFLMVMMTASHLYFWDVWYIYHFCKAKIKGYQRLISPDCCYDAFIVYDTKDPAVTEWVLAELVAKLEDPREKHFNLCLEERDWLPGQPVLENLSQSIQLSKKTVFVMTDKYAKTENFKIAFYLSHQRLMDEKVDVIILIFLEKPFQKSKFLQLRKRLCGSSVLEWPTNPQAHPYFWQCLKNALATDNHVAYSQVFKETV
Kind of assay: TLR7 inhibition reporter assay (HEK-Blue SEAP reporter). The following applies: HEK-Blue cells overexpressing human TLR7; gardiquimod 7.5 μM; 22 hour incubation. The gist of the method: (§1)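 Compound treatment: 30 min, RT, 0.05 nM–50 μM final. Agonist: TLR7 gardiquimod 7.5 μM; TLR8 R848 15.9 μM; TLR9 ODN2006 5 nM. Incubation 22 h, 37 °C, 5% CO2. Readout SEAP, HEK-Blue Detection.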
In general terms: Reporter assays use an easily measured gene product as a stand-in for the process of interest.

The target of another assay is T2, human TLR9 (Homo sapiens, UniProt Q9NR96).
T2 construct: host or cells: HEK-Blue cells
T2 sequence (Q9NR96 26-1032): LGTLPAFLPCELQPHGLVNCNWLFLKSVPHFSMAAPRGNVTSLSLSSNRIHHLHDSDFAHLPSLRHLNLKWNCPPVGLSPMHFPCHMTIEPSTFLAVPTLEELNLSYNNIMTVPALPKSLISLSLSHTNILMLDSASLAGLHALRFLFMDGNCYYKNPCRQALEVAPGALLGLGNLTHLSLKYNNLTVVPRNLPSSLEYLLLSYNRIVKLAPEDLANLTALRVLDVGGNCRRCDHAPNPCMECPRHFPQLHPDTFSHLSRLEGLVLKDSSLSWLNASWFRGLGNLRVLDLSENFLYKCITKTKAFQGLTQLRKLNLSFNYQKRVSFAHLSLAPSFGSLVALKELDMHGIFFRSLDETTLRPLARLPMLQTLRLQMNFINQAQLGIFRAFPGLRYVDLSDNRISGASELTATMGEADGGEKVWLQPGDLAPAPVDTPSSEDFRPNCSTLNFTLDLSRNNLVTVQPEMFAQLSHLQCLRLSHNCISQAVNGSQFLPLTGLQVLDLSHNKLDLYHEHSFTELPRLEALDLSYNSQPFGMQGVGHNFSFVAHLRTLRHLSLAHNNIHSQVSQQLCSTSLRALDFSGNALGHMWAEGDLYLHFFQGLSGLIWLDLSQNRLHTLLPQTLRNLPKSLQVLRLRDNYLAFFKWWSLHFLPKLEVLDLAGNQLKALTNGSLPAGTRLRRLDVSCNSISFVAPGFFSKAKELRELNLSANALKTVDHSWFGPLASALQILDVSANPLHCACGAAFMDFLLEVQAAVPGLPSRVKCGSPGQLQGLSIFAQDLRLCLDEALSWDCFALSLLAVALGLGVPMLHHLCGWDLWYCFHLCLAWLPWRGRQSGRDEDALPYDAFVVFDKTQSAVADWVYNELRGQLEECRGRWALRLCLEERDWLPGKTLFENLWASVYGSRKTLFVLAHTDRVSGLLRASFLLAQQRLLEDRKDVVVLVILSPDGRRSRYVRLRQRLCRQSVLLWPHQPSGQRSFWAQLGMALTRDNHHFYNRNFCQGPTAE
Kind of assay: TLR9 inhibition reporter assay (HEK-Blue SEAP reporter). The following applies: HEK-Blue cells overexpressing human TLR9; ODN2006 5 nM; 22 hour incubation. The gist of the method:
as §1

For a further assay, the target named is T3, human TLR8 (Homo sapiens, UniProt Q9NR97).
T3 construct: host or cells: HEK-Blue cells
T3 sequence (Q9NR97 27-1041): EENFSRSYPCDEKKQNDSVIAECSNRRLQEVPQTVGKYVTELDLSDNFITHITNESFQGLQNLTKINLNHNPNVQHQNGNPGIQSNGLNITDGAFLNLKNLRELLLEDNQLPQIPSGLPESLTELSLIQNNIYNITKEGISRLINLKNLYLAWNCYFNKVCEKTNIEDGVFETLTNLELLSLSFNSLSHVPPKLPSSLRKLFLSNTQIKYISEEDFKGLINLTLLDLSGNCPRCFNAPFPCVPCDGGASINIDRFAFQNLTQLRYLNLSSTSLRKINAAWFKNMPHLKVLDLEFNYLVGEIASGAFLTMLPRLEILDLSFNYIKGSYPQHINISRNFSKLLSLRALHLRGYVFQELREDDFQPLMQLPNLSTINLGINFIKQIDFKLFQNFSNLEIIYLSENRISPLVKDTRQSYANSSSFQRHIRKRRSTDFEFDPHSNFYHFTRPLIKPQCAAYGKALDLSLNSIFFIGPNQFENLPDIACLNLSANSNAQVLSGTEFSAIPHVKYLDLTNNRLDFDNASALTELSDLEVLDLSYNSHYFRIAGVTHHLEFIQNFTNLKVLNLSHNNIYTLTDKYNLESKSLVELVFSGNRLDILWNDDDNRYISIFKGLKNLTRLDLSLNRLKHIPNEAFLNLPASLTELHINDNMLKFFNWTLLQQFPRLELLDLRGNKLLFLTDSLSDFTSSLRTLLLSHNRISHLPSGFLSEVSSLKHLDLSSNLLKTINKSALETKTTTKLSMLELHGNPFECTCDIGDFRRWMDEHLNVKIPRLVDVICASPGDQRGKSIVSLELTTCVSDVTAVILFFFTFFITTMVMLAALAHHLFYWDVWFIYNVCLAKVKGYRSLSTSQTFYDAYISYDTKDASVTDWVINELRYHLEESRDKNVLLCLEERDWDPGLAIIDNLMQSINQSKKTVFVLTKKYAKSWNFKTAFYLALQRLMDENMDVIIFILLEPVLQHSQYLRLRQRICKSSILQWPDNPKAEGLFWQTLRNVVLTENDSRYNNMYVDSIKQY
Kind of assay: TLR8 inhibition reporter assay (HEK-Blue SEAP reporter). The following applies: HEK-Blue cells overexpressing human TLR8; R848 15.9 μM; 22 hour incubation. How it is done: TLR7/8/9 Inhibition Reporter Assays
HEK-Blue™-cells (Invivogen) overexpressing human TLR7, TLR8 or TLR9 receptors were used for screening inhibitors of these receptors using an inducible SEAP (secreted embryonic alkaline phosphatase) reporter gene under the control of the IFN-β minimal promoter fused to five NF-κB and AP-1-binding sites. Briefly, cells are seeded into Greiner 384 well plates (15000 cells per well for TLR7, 20,000 for TLR8 and 25,000 for TLR9) and then treated with test compounds in DMSO to yield a final dose response concentration range of 0.05 nM-50 μM. After a 30 minute compound pre-treatment at room temperature, the cells are then stimulated with a TLR7 ligand (gardiquimod at a final concentration of 7.5 μM), TLR8 ligand (R848 at a final concentration of 15.9 μM) or TLR9 ligand (ODN2006 at a final concentration of 5 nM) to activate NF-κB and AP-1 which induce the production of SEAP. After a 22 hour incubation at 37° C., 5% CO2, SEAP levels are determined with the addition of HEK-Blue™ Detection reagent (Invivogen), a cell culture medium that allows for detection of SEAP, according to manufacturer's specifications. The percent inhibition is determined as the % reduction in the HEK-Blue signal present in wells treated with agonist plus DMSO alone compared to wells treated with a known inhibitor.

In the case of `COc1ccc(-c2[nH]c3ccc(NC(=O)[C@H](N)CC(C)C)cc3c2C(C)C)cc1OC` [Example 16, (R)-2-amino-N-(2-(3,4-dimethoxyphenyl)-3-isopropyl-1H-indol-5-yl)-4-methylpentanamide], the figures for the 50% inhibitory concentration (IC50) against human TLR7, at human TLR9 and at human TLR8 were 2070 nM, 5760 nM and 47 nM, respectively.
On to `COc1ccc(-c2[nH]c3ccc(N4CCN(C5CCN(C)CC5)CC4)cc3c2C(C)C)cc1OC` [Example 162, 2-(3,4-dimethoxyphenyl)-3-isopropyl-5-(4-(1-methylpiperidin-4-yl)piperazin-1-yl)-1H-indole], for which the half-inhibitory concentration (IC50) was 30 nM against human TLR7, 935 nM on human TLR9 and 7.9 nM against human TLR8.
As for `CCC[C@@H](N)C(=O)Nc1ccc2[nH]c(-c3ccc(OC)c(OC)c3)c(C(C)C)c2c1` [Example 14, (R)-2-amino-N-(2-(3,4-dimethoxyphenyl)-3-isopropyl-1H-indol-5-yl)pentanamide], the IC50 against human TLR7 was found to be 347 nM; against human TLR9, 7830 nM; against human TLR8 it was 67 nM.
Turning to `CC(C)c1c(-c2ccnc3[nH]ncc23)[nH]c2ccc(N3CCNC3=O)cc12` [Example 27, 1-(3-isopropyl-2-(1H-pyrazolo[3,4-b]pyridin-4-yl)-1H-indol-5-yl)imidazolidin-2-one], the 50% inhibitory concentration (IC50) was 180 nM on human TLR7, above 50000 nM on human TLR9 and 14 nM against human TLR8.
In the case of `CCc1c(-c2ccnc(OC)c2)[nH]c2ccc(N3CCN(C4CCN(CC)CC4)CC3)cc12` [Example 148, 3-ethyl-5-(4-(1-ethylpiperidin-4-yl)piperazin-1-yl)-2-(2-methoxypyridin-4-yl)-1H-indole], the 50% inhibitory concentration (IC50) at human TLR7 was found to be 96 nM; on human TLR9, 446 nM; on human TLR8 it was 32 nM.
Turning to `CCc1c(-c2ccnc(C)c2)[nH]c2ccc(N3CCC(OC4CCN(C(C)C)CC4)CC3)cc12` [Example 182, 3-ethyl-5-(4-((1-isopropylpiperidin-4-yl)oxy)piperidin-1-yl)-2-(2-methylpyridin-4-yl)-1H-indole], the half-maximal inhibitory concentration (IC50) against human TLR9 was 658 nM; against human TLR8, 47900 nM.
For `COc1ccc(-c2[nH]c3ccc(N4CCC(CCN(C)C)CC4)cc3c2C(C)C)cc1OC` [Example 71, 2-(1-(2-(3,4-dimethoxyphenyl)-3-isopropyl-1H-indol-5-yl)piperidin-4-yl)-N,N-dimethylethan-1-amine], the concentration for half-maximal inhibition (IC50) on human TLR9 is 608 nM; against human TLR8, above 50000 nM.
Take `COc1ccc(-c2[nH]c3ccc(NC(=O)[C@@H](N)CC(N)=O)cc3c2C(C)C)cc1OC` [Example 18, (S)-2-amino-N1-(2-(3,4-dimethoxyphenyl)-3-isopropyl-1H-indol-5-yl)succinamide]: the IC50 on human TLR7 came out at 280 nM; on human TLR8 it was 89 nM.
For `COc1ccc(-c2[nH]c3ccc(NC(=O)[C@H](N)CC(N)=O)cc3c2C(C)C)cc1OC` [Example 19, (R)-2-amino-N1-(2-(3,4-dimethoxyphenyl)-3-isopropyl-1H-indol-5-yl)succinamide], in that order: 441 nM and 97 nM.
Consider `CCN1CCC(N2CCN(c3ccc4[nH]c(-c5ccc(OC)c(OC)c5)c(C)c4c3)CC2)CC1` [Example 155, 2-(3,4-dimethoxyphenyl)-5-(4-(1-ethylpiperidin-4-yl)piperazin-1-yl)-3-methyl-1H-indole], for which the IC50 on human TLR9 was 451 nM; on human TLR8, above 50000 nM.
Take `COc1ccc(-c2[nH]c3ccc(NC4CCC(N5CCN(C6CCCC6)CC5)CC4)cc3c2C(C)C)cc1OC` (centres unmarked) [Example 58, N-(4-(4-cyclopentylpiperazin-1-yl)cyclohexyl)-2-(3,4-dimethoxyphenyl)-3-isopropyl-1H-indol-5-amine]: the values for the IC50 against human TLR7 and against human TLR9 were 351 nM and 1080 nM, respectively.
On to `COc1ccc(-c2[nH]c3ccc(N4CCC(N5CCN(C6CCCC6)CC5)CC4)cc3c2C(C)C)cc1OC` [Example 93, 5-(4-(4-cyclopentylpiperazin-1-yl)piperidin-1-yl)-2-(3,4-dimethoxyphenyl)-3-isopropyl-1H-indole], for which the concentration for half-maximal inhibition (IC50) on human TLR7 came to 132 nM; against human TLR9, 925 nM.

As usually defined, the IC50 is the concentration needed to halve the response being measured.
